Data on three molecules can be found in EP1874270B1, “PHARMACEUTICAL AEROSOL COMPOSITION” (priority 2005, dated 2006).

Data set [1] is classed as physicochemical. The protocol:
Buffered aqueous solutions of tyloxapol, DMPC and tyloxapol in a mixture with DMPC were prepared. The saturation solubility of budesonide in these solutions was measured by adding an excess of budesonide and treating the sample with heat and ultrasound and subsequently allowing it to stand for equilibration. The equilibrated samples were filtered through a membrane filter with a pore width of 0.22 µm and the content of budesonide in the filtrate was determined. […]

Data set [2] can be described thus: Colloidal solubilization of the active agent with non-ionic surfactant and lecithin.
Data set [3] is described as follows: Inhalation experiments: local anesthetic effect. In kind it is in vivo. The conditions noted are these: inhalation of 0.55 % (w/v) lidocaine base in colloidal tyloxapol/DMPC solution (Example 5); effect undesirable in this context. An excerpt:
Sometimes, but not necessarily, bad taste is accompanied by mucosal irritations caused by the substance. This occurs in various degrees which, in the case of application by inhalation, may range from slight irritation of the pharynx and/or respiratory tract to cough, fits of coughing, bronchoconstrictions and bronchospasms. […] In a further embodiment of the invention, the preparation accordingly contains an active agent which is irritating to the mucosa or causes coughing or bronchoconstrictions. In this connection, active agents from the group of corticoids, betamimetics, anti-cholinergics, anesthetics and antiinfectives are again preferred.
After a sterile filtration, the colloidal solution was filled into pre-sterilized single dose containers (0.5 - 3 ml) of glass and polypropylene.

[4] abbreviates: Polysorbate 80 0.10 wt.-%, Lipoid S100 1.0 wt.-%, ratio 1:10.
[5] abbreviates: Polysorbate 80 0.50 wt.-%, Lipoid S100 3.0 wt.-%, ratio 1 : 6.

Turning to `CCCC1O[C@@H]2C[C@H]3[C@@H]4CCC5=CC(=O)C=C[C@]5(C)[C@H]4[C@@H](O)C[C@]3(C)[C@]2(C(=O)CO)O1` (stereo partly drawn) [Budesonide, budesonide], the “saturation concentration of budesonide in DMPC solutions” value in data set [1] is “could not be increased”. In addition, the Budesonide solubilized in data set [2] (setting [4]) is 0.36 mg/mL; in data set [2] (Polysorbate 80 0.15 wt.-%, Lipoid S100 1.5 wt.-%, ratio 1:10) it was 0.43 mg/mL; in data set [2] (Polysorbate 80 0.25 wt.-%, Lipoid S100 1.5 wt.-%, ratio 1 : 6) it was 0.47 mg/mL; in data set [2] (Polysorbate 80 0.40 wt.-%, Lipoid S100 1.5 wt.-%, ratio 1 : 3.75 (for comparison and/or reference only)) it was 0.50 mg/mL; in data set [2] (Polysorbate 80 0.50 wt.-%, Lipoid S100 2.0 wt.-%, ratio 1:4 (for comparison and/or reference only)), 0.83 mg/mL; in data set [2] (setting [5]), 1.09 mg/mL. For the same molecule, the Budesonide solubilized stood at 0.43 mg/mL in data set [2] (Solutrol HS 15 0.10 wt.-%, Lipoid S100 1.5 wt.-%, ratio 1 : 15); 0.47 mg/mL in data set [2] (Solutrol HS 15 0.25 wt.-%, Lipoid S100 1.5 wt.-%, ratio 1 : 6); 0.48 mg/mL in data set [2] (Solutrol HS 15 0.50 wt.-%, Lipoid S100 1.5 wt.-%, ratio 1 : 3.33 (for comparison and/or reference only)); 0.37 mg/mL in data set [2] (Vitamin E TPGS 0.10 wt.-%, Lipoid S100 1.0 wt.-%, ratio 1 : 10); 0.44 mg/mL in data set [2] (Vitamin E TPGS 0.10 wt.-%, Lipoid S100 1.5 wt.-%, ratio 1 : 15); 0.46 mg/mL in data set [2] (Vitamin E TPGS 0.25 wt.-%, Lipoid S100 1.5 wt.-%, ratio 1 : 6). Besides, the Budesonide solubilized stood at 0.48 mg/mL in data set [2] (Vitamin E TPGS 0.50 wt.-%, Lipoid S100 1.5 wt.-%, ratio 1 : 3.33 (for comparison and/or reference only)); 0.80 mg/mL in data set [2] (Vitamin E TPGS 0.50 wt.-%, Lipoid S100 2.0 wt.-%, ratio 1 : 4 (for comparison and/or reference only)); 1.09 mg/mL in data set [2] (Vitamin E TPGS 0.50 wt.-%, Lipoid S100 3.0 wt.-%, ratio 1 : 6). Besides, the “budesonide colloidally solubilized at a concentration of” value in data set [2] (vitamin E TPGS 0.04 wt.-%, polysorbate 80 0.06 wt.-%, lecithin 1.0 wt.-%) was determined as 0.38 mg/mL; in data set [2] (vitamin E TPGS 0.2 wt.-%, polysorbate 80 0.3 wt.-%, lecithin 3.0 wt.-%), 0.95 mg/mL.
As for `CCC(=O)O[C@]1(C(=O)SCF)[C@H](C)C[C@H]2[C@@H]3C[C@H](F)C4=CC(=O)C=C[C@]4(C)[C@@]3(F)[C@@H](O)C[C@@]21C` [Fluticasone prop., fluticasone propionate], the Fluticasone prop. solubilized was 0.07 mg/mL in data set [2] (setting [4]) and 0.18 mg/mL in data set [2] (setting [5]).
As to `CCN(CC)CC(=O)Nc1c(C)cccc1C` [lidocaine], the “local anesthetic effect of lidocaine” value in data set [3] is “reduced”.
